{
  "source": "patent US20220202811A1",
  "about": "“TREATMENT FOR RETINOIC ACID RECEPTOR-RELATED ORPHAN RECEPTOR Ɣ (RORƔ)-DEPENDENT CANCERS” (The Regents of the University of California, priority 2019, published 2022)",
  "system": "primary patient-derived organoids",
  "assay": "primary patient-derived organoids, SR2211",
  "format": "cell-based, human",
  "conditions": "following SR2211 treatment",
  "procedure": "Primary patient organoids were established and provided by Dr. Andrew Lowy. Briefly, patient-derived xenografts were digested for 1 hour at 37° C. in RPMI containing 2.5% FBS, 5 mg/ml Collagenase II, and 1.25 mg/ml Dispase II, then passaged through a […] mesh filter. Cells were plated at a density of 1.5×10^5 cells per 50 μl Matrigel. After domes were solidified, growth medium was added as follows: RPMI containing 50% Wnt3a conditioned media, 10% R-Spondinl-conditioned media, 2.5% FBS, 50 ng/ml EGF, 5 mg/ml Insulin, 12.5 ng/ml hydrocortisone, and 14 μM Rho Kinase Inhibitor. After establishment, organoids were passaged and maintained as previously described (Boj et al., 2015). Briefly, organoids were isolated using Cell Recovery Solution (Corning 354253), then dissociated into single cell suspensions with TrypLE Express (ThermoFisher 12604) supplemented with 25 μg/ml DNase I (Roche) and 14 μM Rho Kinase Inhibitor (Y-27632, Sigma). Cells were split 1:2 into 20 μl domes plated on pre-warmed 48 well plates. Domes were incubated at 37° C. for 5 min, then covered with human complete organoid feeding media (Boj et al., 2015) without Wnt3a-conditioned media. […] Organoids were grown in the presence of vehicle or SR2211 for 7 days, then imaged and quantified, n=3 independent wells plated per dose per treatment group. […] Organoids were counted and measured using ImageJ 1.51s software.",
  "data": [
    {"smiles": "OC(c1ccc(-c2ccc(CN3CCN(Cc4ccncc4)CC3)cc2)c(F)c1)(C(F)(F)F)C(F)(F)F", "note": "[SR2211]", "values": [
      {"measurement": "reduction in total organoid volume", "value": "~300", "unit": "fold"}
    ]}
  ]
}
